Here are results for eleven compounds from the Kinase Knowledgebase extract (Sharma et al. 2016).

Each structure is given as a SMILES string. pIC50: −log10 of the molar value.

The test has as its target CDK2 (human) (UniProt P24941). Briefly: Enzyme Assay.
`C=CCOc1ccc(CN/C=C2\C(=O)NC(=O)c3ccc(Br)cc32)cc1O` showed a pIC50 of 4.54.
Then `COc1ccc(CNC=C2C(=O)NC(=O)c3ccc(-c4ccc5ccccc5c4)cc32)cc1O`, with 4.30.
As to `CC(C)(C)c1ccc2c(c1)C(=CNCc1cc(O)ccc1-c1ccoc1)C(=O)NC2=O`, the pIC50 was 4.88.
`COc1cnc(CNC=C2C(=O)NC(=O)c3ccc(-n4cccc4)cc32)cc1O` showed a negative logarithm of the IC50 (pIC50) of 5.62.
In turn, `O=C1NC(=O)c2ccc(-c3ccoc3)cc2/C1=C/NCc1ccc(OC(F)F)c(O)c1` gave a pIC50 of 4.30.
Turning to `CCCOc1ccc(CN/C=C2\C(=O)NC(=O)c3ccc(I)cc32)nc1O`, the negative-log IC50 (pIC50) is 6.15.
For `CC(C)(C)c1ccc2c(c1)C(=CNCc1ccc(-c3ccoc3)c(O)c1)C(=O)NC2=O`, the pIC50 was 4.88.
`CC(=O)Nc1ccc(CN/C=C2\C(=O)NC(=O)c3ccc(Br)cc32)cc1O` had a negative-log IC50 (pIC50) of 4.30.
`Cc1cccc(-c2ccc3c(c2)C(=CNCc2ccc(O)c(O)c2)C(=O)NC3=O)c1` had a pIC50 of 4.30.
Then `O=C1NC(=O)c2ccc(Br)cc2/C1=C/NCc1ccc(OCCO)c(O)c1`, with 4.30; and `O=C1NC(=O)c2ccccc2/C1=C/Nc1ccc(CN2CCCCC2)cc1`, with 4.64.

As usually defined, the pIC50 is −log10 of the IC50, conventionally taken in molar units. High values mean a low IC50, low ones a high IC50.
